Measured values reported in patent US4168316A, “Immunosuppressive-1-(thiocarbamoyl)-2-imidazolidinone” (Northwestern University, priority 1978, dated 1979).

How the values were obtained:
[1] = system: granuloma formation around S. mansoni eggs; assay: granuloma formation around S. mansoni eggs injected intravenously into the pulmonary microvasculature; assay type: in vivo, CF1 Swiss albino female mice; details: niridazole single oral dose 1 mg/kg, Day -1, p<0.005
Experimental: Groups of 5 weanling CF1 Swiss albino female mice (18-22 g body weight) obtained from Carworth Farms, Inc., New City, New York were treated by intravenous injection with different doses of urine fractions at varying time intervals before egg injection. Untreated mice and niridazole treated animals (1 mg/kg body weight given orally on the day before egg injection) were used as controls. […] Fifty granulomas containing eggs in their centers were measured from each experimental group and the significance of the difference was evaluated by the Student's t test.

[2] = system: DNFB-induced ear swelling; assay: ear swelling assay, delayed-type contact sensitivity to 2,4-dinitro-1-fluorobenzene (DNFB); assay type: in vivo, inbred mice (C57BL/6J; (C57BL/6J×DBA/2J) F1)
From the text: In further proof of the activity of the purified material from Example 3 as compared with niridazole per se, there was employed the ear swelling assay of Phanuphak et al. (1), which measures delayed-type contact sensitivity of inbred mice to 2,4-dinitro-1-fluorobenzene (DNFB). The assay was done according to the following protocol: on Day 1, groups of mice, matched for sex and weight, had their abdomens shaved and received varying doses of niridazole or NIF, the purified product of Example 2. The animals were sensitized on Day 3 with 20 μl of 0.5% (v/v) DNFB in acetone: olive oil (4:1, v/v) applied to the shaved abdomen. The sensitization procedure was repeated on Day 4. On Day 8, mice were lightly anesthetized with ether and the right ear thickness measured (10^-2 ×mm) by a modified dial thickness gauge. The right ear was then challenged with 10 μl of 0.5% DNFB solution. Twenty-four hours later, the mice were again anesthetized and the thickness of the right ear was measured to determine the immune response (swelling to the DNFB challenge).

[3] = system: delayed hypersensitivity-type reactions; details: cited from earlier work
[4] = system: inflammation related to delayed hypersensitivity; details: tests on experimental animals; cited from earlier work

## O=C1NCCN1c1ncc([N+](=O)[O-])s1 [niridazole, 1-(5-nitro-2-thiazolyl)-2-imidazolidinone, reference compound]
[1]; Table III experiment
  mean granuloma area: 11 ± 2.6 μ^2 × 10^3
[1]; Table IV experiment
  mean granuloma area: 8 ± 2.6 μ^2 × 10^3
[2]; 10^-3 to 10^-4 g/kg niridazole intraperitoneally
  suppression of ear swelling, in words: Significant suppression of ear swelling
[2]; Exp. I, F1 mice, niridazole dose 10^-2, ip
  SUPPRESSION: 37 ± 3%
[2]; Exp. I, F1 mice, niridazole dose 10^-2, ip, n=5, control 26.9
  EAR SWELLING (± SEM): 17.0 ± 0.9 10^-2 × mm
[2]; Exp. I, F1 mice, niridazole dose 10^-3, ip
  SUPPRESSION: 66 ± 4%
[2]; Exp. I, F1 mice, niridazole dose 10^-3, ip, n=5, control 26.9
  EAR SWELLING (± SEM): 9.1 ± 1.2 10^-2 × mm
[2]; niridazole 10 mg/kg
  suppression at higher doses, in words: less suppression
[3]; human studies by Webster et al
  suppression of delayed hypersensitivity-type reactions, in words: corroborated the suppression of delayed hypersensitivity-type reactions
[3]; patients undergoing prolonged treatment, Mahmoud et al
  effect on inflammations, in words: suppressed inflammations
[4]
  effect on inflammation related to delayed hypersensitivity, in words: suppression of inflammation related to delayed hypersensitivity including retardation of allograft rejection

## NC(=S)N1CCNC1=O [NIF, 1-(thiocarbamoyl)-2-imidazolidinone]
[2]; 10^-8 -10^-10 g/kg pure (NIF) urine extracts
  suppression of ear swelling: 50%
[2]; Exp. II, F1 mice, 1.2 × 10^-8 g/kg ip
  SUPPRESSION: 48 ± 7%
[2]; Exp. II, F1 mice, 1.2 × 10^-8 g/kg ip, n=5, control 30.9
  EAR SWELLING (± SEM): 16.0 ± 2.2 10^-2 × mm
[2]; Exp. II, F1 mice, 1.2 × 10^-10 g/kg ip
  SUPPRESSION: 46 ± 4%
[2]; Exp. II, F1 mice, 1.2 × 10^-10 g/kg ip, n=5, control 30.9
  EAR SWELLING (± SEM): 16.8 ± 1.2 10^-2 × mm
[2]; Exp. III, B6 mice, 1.6 × 10^-8 g/kg ip
  SUPPRESSION: 52 ± 14%
[2]; Exp. III, B6 mice, 1.6 × 10^-8 g/kg ip, n=4, control 36.2
  EAR SWELLING (± SEM): 17.5 ± 5.0 10^-2 × mm
[2]; Exp. III, B6 mice, 1.6 × 10^-8 g/kg iv
  SUPPRESSION: 25 ± 21%
[2]; Exp. III, B6 mice, 1.6 × 10^-8 g/kg iv, n=4, control 36.2
  EAR SWELLING (± SEM): 27.2 ± 7.7 10^-2 × mm
[2]; Exp. III, B6 mice, 1.6 × 10^-10 g/kg ip
  SUPPRESSION: 69 ± 13%
[2]; Exp. III, B6 mice, 1.6 × 10^-10 g/kg ip, n=4, control 36.2
  EAR SWELLING (± SEM): 11.4 ± 4.8 10^-2 × mm
[2]; Exp. III, B6 mice, 1.6 × 10^-10 g/kg iv
  SUPPRESSION: 45 ± 12%
[2]; Exp. III, B6 mice, 1.6 × 10^-10 g/kg iv, n=4, control 36.2
  EAR SWELLING (± SEM): 20.0 ± 4.3 10^-2 × mm
[2]; Exp. III, B6 mice, 1.6 × 10^-11 g/kg iv
  SUPPRESSION: 65 ± 9%
[2]; Exp. III, B6 mice, 1.6 × 10^-11 g/kg iv, n=4, control 36.2
  EAR SWELLING (± SEM): 12.8 ± 3.2 10^-2 × mm
[2]; Exp. III, B6 mice, 1.6 × 10^-12 g/kg iv
  SUPPRESSION: 88 ± 9%
[2]; Exp. III, B6 mice, 1.6 × 10^-12 g/kg iv, n=4, control 36.2
  EAR SWELLING (± SEM): 4.4 ± 3.2 10^-2 × mm
[2]; experiment III, extract dose 10^-12 g/kg
  ear swelling, in words: all but ablated
[2]; extract 10^-8 g/kg i.v.
  suppression at higher doses, in words: less suppression
